# Assay results published in US12226424B2, “Target protein degradation compounds, their anti-tumor use, their intermediates and use of intermediates” (ShanghaiTech University, priority 2018, dated 2025).
# Like-named read-outs stand apart in the source and are kept apart here.
# Tests used:
# MM1S cells [1] = assay: Half inhibitory concentration (IC50) on MM1S tumor cell proliferation (CCK-8); type: cell-based; conditions: Homo sapiens, MM1.S, MM1S cell proliferation inhibitory activity, 72 hours of treatment, read-out: IC50(nM)/MM1S cell line
# Method: The multiple myeloma cell line used was: MM1S (myeloma (immunoglobulin A lambda), B lymphoblasts), purchased from American Type Culture Collection (ATCC). The medium is RPMI1640 supplemented with 10% FBS and 1% Penicillin-Streptomycin (penicillin and streptomycin). The cells used were identified as correct cells by STR cells, and were negative for mycoplasma through routine inspections.
# (§1) The cells used in this present disclosure were cultured in a 37° C. incubator containing 5% CO2. The complete cell culture medium was RPMI 1640 medium with 10% fetal bovine serum, and the final concentrations of penicillin and streptomycin were 100 U/mL, respectively.
# MM1S cells were seeded in 100 μL RPMI1640 complete medium at a density of 15000 cells/well. 100 μL of the inoculated cells were treated with 0.5 μL diluted thio-substituted compound of formula (IV) to be tested of the present disclosure at 10 successively decreasing concentrations (starting at the highest concentration of 10 μM/1 μM; 5-fold serial dilutions). After 72 hours of treatment, the cell viability was determined according to the CCK-8 reagent operating instructions. The negative control was DMSO, and the positive control was a commercial inhibitor. After CCK-8 treatment for 2 h, the value of O.D.450 was measured using a microplate reader.
# MDA-MB-231 cells = assay: Half inhibitory concentration (IC50) on BET-expressing tumor cells, CCK-8, MDA-MB-231; type: cell-based; conditions: Homo sapiens, 48/72 h, read-out: IC50 (nM)/MDA-MB-231 cell line
# Method: (§2) BET-expressing cells MV-4-11 cells (human B granulocytic leukemia cells), MDA-MB-231 cells (human breast cancer cells), MDA-MB-468 cells (human breast cancer cells), MDA-MB-453 Cells (human breast cancer cells), MM1S cells (myeloma (immunoglobulin A lambda), B lymphoblasts) and SR cells (human large cell immunoblast lymphoma) were purchased from the American Type Culture Collection (ATCC).
# as §1, with “1640/IMDM/DMEM” for “1640”, “respectively. All cells were tested negative for mycoplasma with mycoplasma detection kit before the experiment.” for “respectively.”
# (§3) Determination of the Half Inhibitory Concentration (IC50) of PROTAD Compounds on Tumor Cells
# (§4) MV-411 cells, MM1S cells and SR cells were seeded in 100 μL IMDM/RPMI1640/DMEM complete medium at a density of 15000/10000 cells/well; MDA-MB-231 cells, MDA-MB-468 cells, and MDA-MB453 cells were seeded in 100 μL IMDM/RPMI1640/DMEM complete medium at a density of 3000/5000 cells/well, respectively. 100 μL of the inoculated cells were treated with 0.5 μL diluted PROTAD compounds of the present disclosure to be tested at 10 successively decreasing concentrations (starting at the highest concentration of 10 μM; 5-fold serial dilutions). After the cells were treated with the tested drugs 48/72 h, the cell viability was determined according to the CCK-8 reagent manual. The negative control was DMSO, and the positive control was a commercial inhibitor. After CCK-8 treatment for 2 h, the value of O.D.450 was measured using a microplate reader.
# MDA-MB-468 cells = assay: Half inhibitory concentration (IC50) on BET-expressing tumor cells, CCK-8, MDA-MB-468; type: cell-based; conditions: Homo sapiens, 48/72 h, read-out: IC50 (nM)/MDA-MB-468 cell line
# Method: as §2
# as §1, with “1640/IMDM/DMEM” for “1640”, “respectively. All cells were tested negative for mycoplasma with mycoplasma detection kit before the experiment.” for “respectively.”
# as §3, §4
# MDA-MB-453 cells = assay: Half inhibitory concentration (IC50) on BET-expressing tumor cells, CCK-8, MDA-MB-453; type: cell-based, human; conditions: 48/72 h, read-out: IC50 (nM)/MDA-MB-453 cell line
# Method: as §2
# as §1, with “1640/IMDM/DMEM” for “1640”, “respectively. All cells were tested negative for mycoplasma with mycoplasma detection kit before the experiment.” for “respectively.”
# as §3, §4
# MM1S cells [2] = assay: Half inhibitory concentration (IC50) on BET-expressing tumor cells, CCK-8, MM1S; type: cell-based; conditions: Homo sapiens, MM1.S, 48/72 h, read-out: IC50 (nM)/MM1S cell line
# Method: as §2
# as §1, with “1640/IMDM/DMEM” for “1640”, “respectively. All cells were tested negative for mycoplasma with mycoplasma detection kit before the experiment.” for “respectively.”
# as §3, §4
# MV-4-11 cells = assay: Half inhibitory concentration (IC50) on BET-expressing tumor cells, CCK-8, MV-4-11; conditions: Homo sapiens, MV4-11, read-out: IC50 (nM)/MV-4-11 cell line, MV-4-11 cells, 48/72 h, CCK-8
# [3] = Homo sapiens, MDA-MB-453, MDA-MB-453 cells
Compound,IC50 (MM1S cells [1]),IC50 (MDA-MB-453 cells; MDA-MB-453 cells),IC50 (MDA-MB-231 cells),IC50 (MDA-MB-468 cells),IC50 (MDA-MB-453 cells; [3]),IC50 (MM1S cells [2]),IC50 (MV-4-11 cells)
"NCCCSc1cccc2c1CN(C1CCC(=O)NC1=O)C2=O (centres unmarked) [SIAIS171124, 3-(4-((3-aminopropyl)thio)-1-oxoisoindolin-2-yl)piperidine-2,6-dione]",56.9 nM,,,,,,
"NCCCCCSc1cccc2c1CN(C1CCC(=O)NC1=O)C2=O (centres unmarked) [SIAIS171132, 3-(4-((5-aminopentyl)thio)-1-oxoisoindolin-2-yl)piperidine-2,6-dione]",8.27 nM,,,,,,
"Cc1sc2c(c1C)C(c1ccc(Cl)cc1)=N[C@@H](CC(=O)NCCCSc1cccc3c1CN(C1CCC(=O)NC1=O)C3=O)c1nnc(C)n1-2 (stereo partly drawn) [SIAIS171139, 2-((S)-4-(4-chlorophenyl)-2,3,9-trimethyl-6H-thieno[3,2-f][1,2,4]triazolo[4,3-a][1,4]diazepin-6-yl)-N-(3-((2-(2,6-dioxopiperidin-3-yl)-1-oxoisoindolin-4-yl)thio)propyl)acetamide]",,,> 10000 nM,> 10000 nM,452 nM,2.03 nM,1.1 ± 0.6 nM
"NCCSc1cccc2c1CN(C1CCC(=O)NC1=O)C2=O (centres unmarked) [SIAIS171123, 3-(4-((2-aminoethyl)thio)-1-oxoisoindolin-2-yl)piperidine-2,6-dione]",71.4 nM,,,,,,
"Cc1sc2c(c1C)C(c1ccc(Cl)cc1)=N[C@@H](CC(=O)NCCSc1cccc3c1CN(C1CCC(=O)NC1=O)C3=O)c1nnc(C)n1-2 (stereo partly drawn) [SIAIS171138, 2-((S)-4-(4-chlorophenyl)-2,3,9-trimethyl-6H-thieno[3,2-f][1,2,4]triazolo[4,3-a][1,4]diazepin-6-yl)-N-(2-((2-(2,6-dioxopiperidin-3-yl)-1-oxoisoindolin-4-yl)thio)ethyl)acetamide]",,2800 nM,> 10000 nM,> 1740 nM,2630 nM,3.1 nM,8.6 ± 9.1 nM
"Cc1sc2c(c1C)C(c1ccc(Cl)cc1)=N[C@@H](CC(=O)NCCSc1cccc3c1C(=O)N(C1CCC(=O)NC1=O)C3=O)c1nnc(C)n1-2 (stereo partly drawn) [SIAIS171036, 2-((S)-4-(4-chlorophenyl)-2,3,9-trimethyl-6H-thieno[3,2-f][1,2,4]triazolo[4,3-a][1,4]diazepin-6-yl)-N-(2-((2-(2,6-dioxopiperidin-3-yl)-1,3-dioxoisoindolin-4-yl)thio)ethyl)acetamide]",,214 nM,242 ± 65 nM,100 ± 21 nM,163 nM,8.6 nM,4.5 ± 3.2 nM
"O=C1CCC(N2Cc3c(SCCCCCCCCBr)cccc3C2=O)C(=O)N1 (centres unmarked) [SIAIS1216137, 3-(4-((8-bromooctyl)thio)-1-oxoisoindolin-2-yl)piperidine-2,6-dione]",1.58 ± 0.71 nM,,,,,,
"Cc1sc2c(c1C)C(c1ccc(Cl)cc1)=N[C@@H](CC(=O)NCCCSc1cccc3c1C(=O)N(C1CCC(=O)NC1=O)C3=O)c1nnc(C)n1-2 (stereo partly drawn) [SIAIS171013, 2-((S)-4-(4-chlorophenyl)-2,3,9-trimethyl-6H-thieno[3,2-f][1,2,4]triazolo[4,3-a][1,4]diazepin-6-yl)-N-(3-((2-(2,6-dioxopiperidin-3-yl)-1,3-dioxoisoindolin-4-yl)thio)propyl)acetamide]",,,> 2820 nM,> 300 nM,1090 nM,22.6 nM,8.6 ± 8.7 nM
"O=C1CCC(N2Cc3c(SCCCCCCCCCCBr)cccc3C2=O)C(=O)N1 (centres unmarked) [SIAIS1220013, 3-(4-((10-bromodecyl)thio)-1-oxoisoindolin-2-yl)piperidine-2,6-dione]",1.98 nM,,,,,,
"NCCCCCCCSc1cccc2c1CN(C1CCC(=O)NC1=O)C2=O (centres unmarked) [SIAIS171135, 3-(4-((7-aminoheptyl)thio)-1-oxoisoindolin-2-yl)piperidine-2,6-dione]",4.31 nM,,,,,,
"Nc1cccc2c1C(=O)N(C1CCC(=O)NC1=O)C2=O (centres unmarked) [Pomalidomide, reference compound]",9.38 nM,,,,,,

# Further lines, with some results ahead:
IC50 (MM1S cells [1]),IC50 (MDA-MB-453 cells; MDA-MB-453 cells),Compound,IC50 (MDA-MB-231 cells),IC50 (MDA-MB-468 cells),IC50 (MDA-MB-453 cells; [3]),IC50 (MM1S cells [2]),IC50 (MV-4-11 cells)
3.45 nM,,"O=C1CCC(N2Cc3c(SCCCCCCCCCCCBr)cccc3C2=O)C(=O)N1 (centres unmarked) [SIAIS1220015, 3-(4-((11-bromoundecyl)thio)-1-oxoisoindolin-2-yl)piperidine-2,6-dione]",,,,,
4.22 nM,,"NCCCCCCCCSc1cccc2c1CN(C1CCC(=O)NC1=O)C2=O (centres unmarked) [SIAIS171136, 3-(4-((8-aminooctyl)thio)-1-oxoisoindolin-2-yl)piperidine-2,6-dione]",,,,,
,237 nM,"Cc1sc2c(c1C)C(c1ccc(Cl)cc1)=N[C@@H](CC(=O)NCCCCCCCCSc1cccc3c1C(=O)N(C1CCC(=O)NC1=O)C3=O)c1nnc(C)n1-2 (stereo partly drawn) [SIAIS171049, 2-((S)-4-(4-chlorophenyl)-2,3,9-trimethyl-6H-thieno[3,2-f][1,2,4]triazolo[4,3-a][1,4]diazepin-6-yl)-N-(8-((2-(2,6-dioxopiperidin-3-yl)-1,3-dioxoisoindolin-4-yl)thio)octyl)acetamide]",645 ± 249 nM,1730 ± 1650 nM,166 nM,3.06 nM,7.2 ± 9.2 nM
6.61 nM,,"NCCCCSc1cccc2c1CN(C1CCC(=O)NC1=O)C2=O (centres unmarked) [SIAIS171131, 3-(4-((4-aminobutyl)thio)-1-oxoisoindolin-2-yl)piperidine-2,6-dione]",,,,,
1.27 ± 0.13 nM,,"O=C1CCC(N2Cc3c(SCCCCCCBr)cccc3C2=O)C(=O)N1 (centres unmarked) [SIAIS1216133, 3-(4-(6-bromohexylthio)-1-oxoisoindolin-2-yl)piperidine-2,6-dione]",,,,,
,222 nM,"Cc1sc2c(c1C)C(c1ccc(Cl)cc1)=N[C@@H](CC(=O)NCCCCCCCCSc1cccc3c1CN(C1CCC(=O)NC1=O)C3=O)c1nnc(C)n1-2 (stereo partly drawn) [SIAIS171145, 2-((S)-4-(4-chlorophenyl)-2,3,9-trimethyl-6H-thieno[3,2-f][1,2,4]triazolo[4,3-a][1,4]diazepin-6-yl)-N-(8-((2-(2,6-dioxopiperidin-3-yl)-1-oxoisoindolin-4-yl)thio)octyl)acetamide]",537 ± 148 nM,948 ± 241 nM,135 nM,1.2 nM,2 ± 1.8 nM
1.23 ± 0.42 nM,,"O=C1CCC(N2Cc3c(SCCCCCCCBr)cccc3C2=O)C(=O)N1 (centres unmarked) [SIAIS1216135, 3-(4-(7-bromoheptylthio)-1-oxoisoindolin-2-yl)piperidine-2,6-dione]",,,,,
4.77 nM,,"NCCCCCCSc1cccc2c1CN(C1CCC(=O)NC1=O)C2=O (centres unmarked) [SIAIS171134, 3-(4-((6-aminohexyl)thio)-1-oxoisoindolin-2-yl)piperidine-2,6-dione]",,,,,
,75.7 nM,"Cc1sc2c(c1C)C(c1ccc(Cl)cc1)=N[C@@H](CC(=O)NCCCCCCCSc1cccc3c1C(=O)N(C1CCC(=O)NC1=O)C3=O)c1nnc(C)n1-2 (stereo partly drawn) [SIAIS171040, 2-((S)-4-(4-chlorophenyl)-2,3,9-trimethyl-6H-thieno[3,2-f][1,2,4]triazolo[4,3-a][1,4]diazepin-6-yl)-N-(7-((2-(2,6-dioxopiperidin-3-yl)-1,3-dioxoisoindolin-4-yl)thio)heptyl)acetamide]",69 ± 38 nM,46 ± 12 nM,85 nM,2.78 nM,2.2 ± 2 nM
